Measurements published in PMC2603313, “Direct Inhibition of GSK3β by the Phosphorylated Cytoplasmic Domain of LRP6 in Wnt/β-Catenin Signaling” (PLoS ONE, 2008).
Entries after “also recorded” stand apart in the source; their conditions may differ. Ends that are not written are not given here.

What was measured:
A549 cells [1] = assay: β-Catenin immunofluorescence in transfected A549 cells; type: cell-based; settings: GFP fusion
Description: (§1) Figure 1 LRP6 constructs and their cytoplasmic overexpression in cell. (A) Schematic representation of the full-length LRP6 and amino acid sequences of LRP6 intracellular fragments used in this study. The Ser/Thr rich cluster and PPPSPxS motif are underlined in each sequence. Phosphorylated residues are highlighted. (B) Cytosolic overexpression of the LRP6 constructs. A549 cells in which control (empty vector, EV, encoding only GFP), miniCL and miniCLMT were transfected as GFP fusion proteins. Control, miniCL and miniCLMT were detected through the green fluorescence from GFP. β-Catenin was detected using an anti-β-catenin antibody, and the nuclei were detected by DAPI staining. […] Endogenous β-catenin was detected by an anti-β-catenin antibody. p-GS indicates the level of the phosphorylated GS by GSK3β, detected by anti-glycogen synthase (Ser641) antibody. p-S9-GSK3β indicates the phosphorylated Ser9 of GSK3β, and was detected by anti-phospho GSK3β (Ser9) antibody. Levels of transfected proteins were detected using monoclonal GFP antibody, indicated by GFP. Total cellular levels of GS and GSK3β were measured by anti-GS antibody and anti-GSK3β antibody, which are indicated by t-GS and t-GSK3β, respectively. […] (D) Activation of Wnt/β-catenin signaling, which was measured by the Top-flash luciferase activity. […] The luciferase activities were measured after 24 h of the transfection. […]

HepG2 cells [2] = assay: β-Catenin immunofluorescence in transfected HepG2 cells; type: cell-based; settings: GFP fusion
Procedure: (§2) pEGFP-miniCL and pEGFP-miniCLMT vectors were transfected into A549 cells and HepG2 cells using jetpei according to the manufacturer's protocol (Polyplus transfection). In brief, 2 µg of DNA and jetpei mixtures were added to A549 cells and HepG2 cell and incubated for 3 h under serum-free conditions, and then equal volumes of DMEM containing 20% serum were added. After 24 h incubation, cells were harvested using RIPA (containing protease cocktail). Subsequently, 20 µg of protein lysates were applied to SDS-PAGE. After transferring the proteins to a PVDF membrane, samples were incubated with the appropriate antibodies, according to standard western blot protocol.
Transfected cells were fixed with 100% methanol for 20 min at −20°C. After washing with PBS and subsequent blocking with blocking buffer (PBS+0.05% BSA), fixed cells were incubated with anti-β-catenin antibody for 2 h at room temperature. […] After washing with PBS, expression of β-catenin, GFP, and DAPI were analyzed using fluorescence microscopy.
Supplementary file pone.0004046.s001.tif: Figure S1 Cytosolic overexpression of the LRP6 constructs in HepG2 cells. […] Control, miniCL and miniCLMT were detected through the green fluorescence from GFP. β-Catenin was detected using an anti-β-catenin antibody, and the nuclei were detected by DAPI staining. […]

A549 cells [3] = assay: Western blot of β-catenin in transfected A549 cells; type: cell-based; settings: GFP fusion, 24 h
Description: as §1

HepG2 cells [4] = assay: Western blot of β-catenin in transfected HepG2 cells; type: cell-based; settings: GFP fusion, 24 h
Procedure: as §2
Supplementary file pone.0004046.s002.tif: Figure S2 Western blotting analysis from the transfected HepG2 cells. Labels at the left side of blots indicate the antibody used for detection of the corresponding protein. The endogenous β-catenin level was detected by an anti-β-catenin antibody. p-GS indicates the level of the phosphorylated GS by GSK3β, detected by anti-glycogen synthase (Ser641) antibody. p-S9-GSK3β indicates the phosphorylated Ser9 of GSK3β, and was detected by anti-phospho GSK3β (Ser9) antibody. Levels of transfected proteins were detected using monoclonal GFP antibody, indicated by GFP. Pan-Ras is shown as a loading control. (0.05 MB TIF) Click here for additional data file.

glycogen synthase = assay: Western blot of phosphorylated glycogen synthase (Ser641) in transfected A549 cells; type: cell-based; settings: GFP fusion, anti-glycogen synthase (Ser641)
Description: as §1

GSK3β [5] = assay: Western blot of GSK3β phosphorylated at Ser9 in transfected A549 cells; type: cell-based; settings: GFP fusion
Description: as §1

Wnt/β-catenin signaling = assay: TOP-flash luciferase assay in 293 cells; type: cell-based; settings: 24 h after transfection, 4 independent experiments, p<0.01 vs empty vector and vs miniCLMT
Description: as §1

GSK3β [6] = target: T1, GSK3β (Mus musculus, UniProt Q9WV60); assay: Far western binding of GSK3β to miniCL in presence of Axin GBD; settings: phosphorylated GST-miniCL; GSK3β 0.1 µg/ml; GST-Axin GBD 0, 10 µM; three independent experiments
T1 construct: The catalytic domains of mouse GSK3β (residues 27–393) and CK1ε (residues 1–319) were expressed and purified; made in house
Procedure: Figure 4 Phosphorylation-dependent binding of the LRP6 intracellular region to GSK3β in the absence and presence of Axin. (A) GST (Lane 1), GST-fused miniCL (Lane 3; GST-miniCL), GST-fused miniCLMT (Lane 5; GST-miniCLMT), and their phosphorylated forms (Lanes 2, 4, 6; indicated by “phos”) were loaded onto an SDS-polyacrylamide gel, and then transferred to PVDF membrane (Left top). […] The phosphorylated protein bands show an upshifted mobility on the gel. The PVDF membrane was incubated with 1 µg/ml of GSK3β to allow GSK3β to bind to the proteins in the membrane. The bound GSK3β was visualized on the transferred proteins by western blotting using an anti-GSK3β antibody (Left bottom), and the GSK3β protein used to obtain the phosphorylated forms of each protein is indicated by GSK3β*. The band intensities of bound GSK3β were measured from the three independent experiments (Right). […] The phosphorylated GST-fused miniCL was transferred to PVDF membrane, and the membrane was incubated with GSK3β (0.1 µg/ml) and GST-fused Axin GBD domain protein (0, 10 µM). Error bars indicate the standard deviation from three independent experiments. […]
GST-fusion proteins (GST-miniCL, GST-miniCLMT, GST-PPPSPxS, GST-PPPAPxS) were subjected to SDS-PAGE and transferred to a PVDF membrane. […] The binding of GSK3β was detected with rabbit anti-GSK3β antibody and secondary HRP-conjugated goat anti-rabbit IgG (Pierce).

LRP6 miniCL = assay: Far western binding of Axin fragment to LRP6 miniCL with GSK3β; design: species or system human; settings: GST-miniCL 15 µg on PVDF; GSK3β 2 µg/ml and/or His-Axin 12 µg/ml
Procedure: Figure 4 Phosphorylation-dependent binding of the LRP6 intracellular region to GSK3β in the absence and presence of Axin. (A) GST (Lane 1), GST-fused miniCL (Lane 3; GST-miniCL), GST-fused miniCLMT (Lane 5; GST-miniCLMT), and their phosphorylated forms (Lanes 2, 4, 6; indicated by “phos”) were loaded onto an SDS-polyacrylamide gel, and then transferred to PVDF membrane (Left top). […] The phosphorylated protein bands show an upshifted mobility on the gel. The PVDF membrane was incubated with 1 µg/ml of GSK3β to allow GSK3β to bind to the proteins in the membrane. The bound GSK3β was visualized on the transferred proteins by western blotting using an anti-GSK3β antibody (Left bottom), and the GSK3β protein used to obtain the phosphorylated forms of each protein is indicated by GSK3β*. The band intensities of bound GSK3β were measured from the three independent experiments (Right). […] The phosphorylated GST-fused miniCL was transferred to PVDF membrane, and the membrane was incubated with GSK3β (0.1 µg/ml) and GST-fused Axin GBD domain protein (0, 10 µM). Error bars indicate the standard deviation from three independent experiments. (C) GSK3β mediates the binding of an Axin fragment to LRP6 miniCL region. […]

T1 sequence (Q9WV60 27-393): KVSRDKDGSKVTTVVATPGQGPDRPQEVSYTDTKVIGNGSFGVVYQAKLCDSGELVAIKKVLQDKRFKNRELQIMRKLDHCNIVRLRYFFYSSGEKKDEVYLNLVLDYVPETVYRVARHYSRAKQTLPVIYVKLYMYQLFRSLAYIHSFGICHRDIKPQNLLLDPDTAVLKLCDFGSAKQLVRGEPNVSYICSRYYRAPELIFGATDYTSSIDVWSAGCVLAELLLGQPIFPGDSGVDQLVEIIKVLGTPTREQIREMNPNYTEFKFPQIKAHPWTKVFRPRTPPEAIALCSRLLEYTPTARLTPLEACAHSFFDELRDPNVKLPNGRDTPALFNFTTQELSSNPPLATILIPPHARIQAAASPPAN

## miniCL: LRP6 miniCL (residues 1470–1510 of human LRP6), GFP fusion in cells (SSSSSSTKGTYFPAILNPPPSPATERSHYTMEFGYSSNSPS; not fully specified; also: GFP fusion in cells (GFP left off))
A549 cells [1]
  Total cellular β-catenin and nuclear translocation: dramatically increased the total amount of cellular β-catenin and promoted the translocation of β-catenin into the nucleus
HepG2 cells [2]
  Total cellular β-catenin and nuclear translocation: dramatically increased the total amount of cellular β-catenin and promoted the translocation of β-catenin into the nucleus
A549 cells [3]
  β-catenin level (western blot): increased level of β-catenin
HepG2 cells [4]
  β-catenin level (western blot): increased level of β-catenin
Glycogen synthase
  Phosphorylation of glycogen synthase (p-GS): suppressed phosphorylation of glycogen synthase
GSK3β [5]
  Phosphorylation of Ser9 in GSK3β: without the induction of phosphorylation of Ser9 in GSK3β
Wnt/β-catenin signaling
  TOP-flash luciferase activity: significantly induced TOP-flash activity; also recorded: significantly activated Wnt/β-catenin signaling
GSK3β [6]
  Effect of Axin GBD on GSK3β binding to miniCL: does not affect the binding of GSK3β; also recorded: not affected by the presence of Axin

B1: Axin fragment: His-tagged Axin fragment (residues 512–650) including the GBD and the β-catenin binding domain (protein, UniProt O35625 512-650, looked up, fragment)
chain: GKHVPKLGLKLDTAGLHHHRHVHHHVHHNSARPKEQMEAEVARRVQSSFSWGPETHGHAKPRSYSENAGTTLSAGDLAFGGKTSAPSKRNTKKAESGKNANAEVPSTTEDAEKNQKIMQWIIEGEKEISRHRKAGHGSS
modifications: His tag
LRP6 miniCL
  Binding to LRP6 miniCL: bound to LRP6 miniCL only in the presence of GSK3β; also recorded: bound to the LRP6 miniCL fragment only when GSK3β was co-incubated
